Measured values as given in ChEMBL document CHEMBL2331526, “Synthesis and characterization of novel quick-release propofol prodrug via lactonization” (Bioorg Med Chem Lett, 2013).
The source made the active and inactive calls. The rule behind the calls is not given here.

Tests used:
[1] = system: Rattus norvegicus; test: Anesthetic effect in iv dosed Sprague-Dawley rat assessed as disappearance of the righting reflex; type: functional
[2] = Toxicity in iv dosed Sprague-Dawley rat; type: organism-based; details: in vivo
[3] = system: Rattus norvegicus; test: Anesthetic effect in Sprague-Dawley rat assessed as onset time of disappearance of the righting reflex at 2 times ED50, iv; type: functional
[4] = Therapeutic index, ratio of LD50 for Sprague-Dawley rat to ED50 for Sprague-Dawley rat; type: organism-based; details: in vivo, read-out: TI
[5] = system: Rattus norvegicus; test: Anesthetic effect in Sprague-Dawley rat assessed as duration time of disappearance of righting reflex to recovery of righting reflex at 2 times ED50, iv; type: functional
[6] = Solubility of the compound in water; type: physicochemical; details: buffer
[7] = Drug degradation in aqueous ethanol at 5 umol/ml measured up to 4 hrs by HPLC analysis; type: physicochemical; details: buffer, 5000 µM
[8] = Drug degradation in 30% emulsion at 5 umol/ml measured up to 4 hrs by HPLC analysis; type: physicochemical; details: 5000 µM
[9] = system: Plasma; test: Prodrug activation in preheated rat plasma assessed as propofol release at 5 umol/ml measured up to 4 hrs by HPLC analysis; type: cell-free; details: 5000 µM
[10] = system: Rattus norvegicus; test: Toxicity in Sprague-Dawley rat assessed as duration of systemic convulsions at 40 mg/kg, iv; type: organism-based; set-up: dose 40 mg/kg, route intravenous; details: in vivo
[11] = system: Rattus norvegicus; test: Toxicity in Sprague-Dawley rat assessed as duration of systemic convulsions at 34 mg/kg, iv; type: organism-based; set-up: dose 34 mg/kg, route intravenous; details: in vivo
[12] = system: Rattus norvegicus; test: Anesthetic effect in Sprague-Dawley rat assessed as disappearance of the righting reflex at 34 mg/kg, iv; type: functional, organism-based; set-up: dose 34 mg/kg
[13] = system: Rattus norvegicus; test: Anesthetic effect in Sprague-Dawley rat assessed as disappearance of the righting reflex at 200 mg/kg, iv; type: functional, organism-based; set-up: dose 200 mg/kg

SMILES | ED50 [1] | LD50 [2] | Time [3] | selectivity ratio [4] | Time [5] | solubility [6] | Stability [7] | Stability [8] | Drug metabolism [9] | Time [10] | Activity [11] | Activity [12] | Activity [13]
CC(C)c1cccc(C(C)C)c1O [PROPOFOL] | 6.57 mg/kg | 27.1 mg/kg | 0 min | 4.12 | 8.41 min | – | – | – | – | – | – | – | –
CC(C)c1cccc(C(C)C)c1OC(=O)CCCOP(=O)([O-])[O-].[Na+].[Na+] | 44.5 mg/kg | 288 mg/kg | 2.11 min | 6.48 | 27.49 min | soluble | – | – | – | – | – | – | –
CC(C)c1cccc(C(C)C)c1OCOP(=O)([O-])[O-].[Na+].[Na+] [FOSPROPOFOL DISODIUM] | 34.8 mg/kg | 163 mg/kg | 2.17 min | 4.69 | 31.04 min | – | – | – | – | – | – | – | –
CC(C)c1cccc(C(C)C)c1OC(=O)CCCO | 17.5 mg/kg | 81.5 mg/kg | 0.06 min | 4.67 | 24.36 min | – | Stable | Stable | Active | – | – | – | –
CC(C)c1cccc(C(C)C)c1OC(=O)CCCOC(=O)CN.O=C(O)C(F)(F)F | 14.4 mg/kg | 42.7 mg/kg | 0.26 min | 2.96 | 12.74 min | soluble | – | – | – | – | – | – | –
CC(C)c1cccc(C(C)C)c1OCCCCO | – | – | – | – | – | Insoluble | – | – | – | 3.8 min | Toxic | inactive | –
CCCC(=O)Oc1c(C(C)C)cccc1C(C)C | – | – | – | – | – | Insoluble | – | – | – | – | – | – | inactive
